Patent EP1171440B1, “SUBSTITUTED-3-CYANO-[1.7],[1.5], AND [1.8]-NAPHTHYRIDINE INHIBITORS OF TYROSINE KINASES” (Wyeth Holdings Corporation, priority 1999, dated 2000)
≈ marks a conversion by molar mass, not a printed value. Where “and” joins values, the source holds several entries; their conditions need not be identical. Equal entries are not always repeated. Where two headings read alike, the source gives them in different places. One block for each compound: values may come before it.

Columns and labels:
[1] = biological target: Mitogen Activated Protein Kinase (Mek-Erk) (Homo sapiens, UniProt P28482+Q02750); experiment: Mitogen Activated Protein Kinase (MAPK) coupled MEK 1 / ERK2 assay; format: biochemical; conditions: separate entries = evaluated more than one time
Sequence of Mitogen Activated Protein Kinase (Mek-Erk) (P28482 2-360): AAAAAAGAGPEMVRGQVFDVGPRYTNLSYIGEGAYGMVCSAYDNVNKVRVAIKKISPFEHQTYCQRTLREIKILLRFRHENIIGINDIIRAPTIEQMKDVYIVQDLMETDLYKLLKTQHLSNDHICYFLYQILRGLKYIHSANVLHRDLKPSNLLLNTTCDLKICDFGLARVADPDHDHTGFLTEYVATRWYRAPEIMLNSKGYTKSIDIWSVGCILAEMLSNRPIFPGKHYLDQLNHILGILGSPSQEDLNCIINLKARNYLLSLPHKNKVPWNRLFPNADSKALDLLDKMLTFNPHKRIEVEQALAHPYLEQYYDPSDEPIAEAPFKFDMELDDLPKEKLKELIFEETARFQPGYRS
Sequence of Mitogen Activated Protein Kinase (Mek-Erk) (Q02750 whole entry): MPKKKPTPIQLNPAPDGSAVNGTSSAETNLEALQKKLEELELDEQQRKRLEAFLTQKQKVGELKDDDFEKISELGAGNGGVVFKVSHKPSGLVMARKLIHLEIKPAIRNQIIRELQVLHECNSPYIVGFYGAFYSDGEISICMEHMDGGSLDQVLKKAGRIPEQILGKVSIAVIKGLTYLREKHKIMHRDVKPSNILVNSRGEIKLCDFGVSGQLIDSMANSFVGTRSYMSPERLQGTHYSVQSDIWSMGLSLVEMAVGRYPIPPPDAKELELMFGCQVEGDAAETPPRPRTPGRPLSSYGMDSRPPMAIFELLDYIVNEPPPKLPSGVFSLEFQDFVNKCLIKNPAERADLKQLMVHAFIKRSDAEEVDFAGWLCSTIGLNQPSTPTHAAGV
Protocol: To evaluate inhibitors of the MAP (mitogen activated protein) kinase a two component coupled standard pharmacological test procedure, which measures phosphorylation of a serine/threonine residue in an appropriate sequence in the substrate in the presence and absence of a putative inhibitor, was used. Recombinant human MEK 1 (MAPKK) was first used to activate recombinant human ERK2 (MAPK) and the activated MAPK (ERK) was incubated with substrate (MBP peptide or MYC peptide) in the presence of ATP, Mg^+2 and radiolabeled ^33P ATP. The phosphorylated peptide was captured on a P 81 phosphocellulose filter (paper filter or embedded in microtiter plate) washed and counted by scintillation methods.
The peptide substrates used in the assay are MBP, peptide substrate ([…]), or synthetic Myc substrate, ([…]•5 TFA. The recombinant enzymes used were prepared as GST fusion proteins of human ERK 2 and human MEK 1. Inhibitor samples were prepared as 10X stocks in 10% DMSO and an appropriate aliquot was used to deliver either 10 ug/ml for a single point screening dose or 100, 10, 1, and 0.1 uM final concentration for a dose response curve. Final DMSO concentrations were less than or equal to 1%.
The reaction was run as follows in 50 mM Tris kinase buffer, pH 7.4 in a reaction volume of 50 ul. The appropriate volume of kinase buffer and inhibitor sample was added to the tube. Appropriate dilution of enzyme was delivered to give 2-5 ug recombinant MAPK (Erk ) per tube. The inhibitor was incubated with MAPK (Erk) for 30 min at 0 deg. C. Recombinant Mek (MAPKK) ( 0.5-2.5 ug) or fully activated Mek (0.05-0.1 units) was added to activate the Erk and incubated for 30 min at 30° C. Then substrate and gamma ^33P ATP was were added to give a final concentration of 0.5- 1 mM MBPP or 250-500 uM Myc; 0.2-0.5 uCi gamma ^33P ATP/tube; 50 µM ATP final concentration. Samples were incubated at 30°C for 30 minutes and the reaction was stopped by adding 25 µl of ice cold 10 %TCA. After samples were chilled on ice for 30 min, 20 µl of sample was transferred onto P 81 phosphocellulose filter paper or appropriate MTP with embedded P 81 filter. Filter papers or MTP were washed 2 times with a large volume of 1% acetic acid, then 2 times with water. The filters or MTP were briefly air dried before addition of scintillant and samples were counted in the appropriate scintillation counter set up for reading ^33P isotope. Samples included a positive control (activated enzyme plus substrate); a no enzyme control; a no substrate control; samples with different concentrations of putative inhibitor; and samples with reference inhibitors (other active compounds or non-specific inhibitors such as staurosporine or K252 B).
The raw data was captured as cpm. Sample replicates were averaged and corrected for background count. Mean cpm data was tabulated by group and % inhibition by a test compound was calculated as (corrected cpm control- corrected. cpm sample/control) X 100 = % inhibition. If several concentrations of inhibitor were tested, IC50 values (the concentration which gives 50% inhibition) were determined graphically from the dose response curve for % inhibition or by an appropriate computer program. The results obtained for representative compounds of this invention are listed in TABLE 3 where there may be separate entries for the same compound; this is an indication that the compound was evaluated more than one time.

[2] = biological target: T1, EGF-R Kinase (recombinant enzyme) (Homo sapiens, UniProt P00533); experiment: Inhibition of Epidermal Growth Factor Receptor Kinase (EGF-R) using recombinant enzyme, RR-SRC peptide phosphorylation with 33P-ATP; format: biochemical; conditions: for inhibition at 0.5 µM: 0.5 µM concentration of test compound, read-out: % Inhibition @ 0.5
T1 construct: containing the EGFR cDNA encoding amino acids 645 - 1186 preceded by Met-Ala-(His)6; made in house; host or cells: Sf9 insect cells infected with recombinant baculovirus vHcEGFR52
T1 sequence (P00533 669-1210): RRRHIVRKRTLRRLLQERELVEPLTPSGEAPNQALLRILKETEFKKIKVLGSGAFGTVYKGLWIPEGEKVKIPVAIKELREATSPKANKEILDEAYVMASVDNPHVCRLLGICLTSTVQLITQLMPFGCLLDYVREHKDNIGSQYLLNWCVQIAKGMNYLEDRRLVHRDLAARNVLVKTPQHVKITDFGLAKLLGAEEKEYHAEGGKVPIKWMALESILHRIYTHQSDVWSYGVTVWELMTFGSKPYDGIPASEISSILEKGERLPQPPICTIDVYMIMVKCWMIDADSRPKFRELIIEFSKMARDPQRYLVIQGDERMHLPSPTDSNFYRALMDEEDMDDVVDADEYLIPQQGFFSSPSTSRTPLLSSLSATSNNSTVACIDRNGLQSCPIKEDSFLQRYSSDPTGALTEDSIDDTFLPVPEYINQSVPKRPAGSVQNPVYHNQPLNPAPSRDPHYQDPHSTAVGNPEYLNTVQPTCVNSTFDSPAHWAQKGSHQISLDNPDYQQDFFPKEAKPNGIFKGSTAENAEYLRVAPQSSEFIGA
Protocol: Representative test compounds were evaluated for their ability to inhibit the phosphorylation of the tyrosine residue of a peptide substrate catalyzed by the enzyme epidermal growth factor receptor kinase. […] The enzyme used in this assay is the His-tagged cytoplasmic domain of EGFR. A recombinant baculovirus (vHcEGFR52) was constructed containing the EGFR cDNA encoding amino acids 645 - 1186 preceded by Met-Ala-(His)6 . Sf9 cells in 100 mm plates were infected at an moi of 10 pfu/cell and cells were harvested 48 h post infection. A cytoplasmic extract was prepared using 1% Triton X-100 and applied to Ni-NTA column. After washing the column with 20 mM imidazole, HcEGFR was eluted with 250 mM imidazole (in 50 mM Na2HPO4, pH 8.0, 300 mM NaCl). Fractions collected were dialyzed against 10 mM HEPES, pH 7.0, 50 mM NaCl, 10% glycerol, 1ug/mL antipain and leupeptin and 0.1 mM Pefabloc SC. The protein was frozen in dry ice/methanol and stored -70° C.
Test compounds were made into 10 mg/mL stock solutions in 100% dimethylsulfoxide (DMSO). Prior to experiment, stock solutions were diluted to 500 uM with 100% DMSO and then serially diluted to the desired concentration with HEPES buffer (30 mM HEPES pH 7.4).
For the enzyme reaction, 10 uL of each inhibitor (at various concentrations) were added to each well of a 96-well plate. To this was added 3 uL of enzyme (1:10 dilution in 10mM HEPES, pH 7.4 for final conc. of 1:120). This was allowed to sit for 10 min on ice and was followed by the addition of 5 ul peptide (80 uM final conc.), 10ul of 4X Buffer (Table A), 0.25 uL ^33P-ATP and 12 uL H2O. The reaction was allowed to run for 90 min at room temperature and was followed by spotting the entire volume on to precut P81 filter papers. The filter discs were washed 2X with 0.5% phosphoric acid and radioactivity was measured using a liquid scintillation counter. Table A
The IC50 is the concentration of test compound needed to reduce the total amount of phosphorylated substrate by 50%. The % inhibition of the test compound was determined for at least three different concentrations and the IC50 value was evaluated from the dose response curve. […] CPM(control) is in units of counts per minute and was a number expressing the amount of radiolabeled ATP (γ-^33P) incorporated into the RR-SRC peptide substrate by the enzyme after 90 minutes at room temperature in the absence of test compound as measured by liquid scintillation counting. The CPM values were corrected for the background counts produced by ATP in the absence of the enzymatic reaction. Where it was possible to determine an IC50 value, this is reported in TABLE 1 otherwise the % inhibition at 0.5 µM concentration of test compound is shown in TABLE 1.

A2780DDP = experiment: Inhibition of Cancer Cell Growth as Measured by Cell Number (Sulforhodamine B); format: cell-based, Human; conditions: 48 hours exposure
Protocol: (§1) After 48 hours exposure to test compounds, cells were fixed with trichloroacetic acid, and stained with Sulforhodamine B. After washing with trichloroacetic acid, bound dye was solubilized in 10 mM Tris base and optical density was determined using a plate reader. Under conditions of the assay the optical density is proportional to the number of cells in the well. […] The test procedure is described in details by Philip Skehan et. al, J.Natl. Canc. […] The Her2Neu cell line is a 3T3 line that has bbeen transfected with Her2 receptor kinase.

A2780S = experiment: as above; format: cell-based, Human; conditions: 48 hours exposure
Protocol: as §1

A431 = experiment: as above; format: cell-based, Human; conditions: 48 hours exposure
Protocol: as §1

MDA435 = experiment: as above; format: cell-based, Human; conditions: 48 hours exposure
Protocol: as §1

SKBR3 = experiment: as above; format: cell-based, Human
Protocol: as §1

SW620 = experiment: as above; format: cell-based, Human
Protocol: as §1

[3] = recombinant His-tagged cytoplasmic domain of EGFR, RR-SRC peptide, 90 min at room temperature, read-out: IC50
[4] = Homo sapiens, 48 h, read-out: IC50
[5] = Homo sapiens, A-431, 48 h, read-out: IC50
[6] = Homo sapiens, MDA435, 48 h, read-out: IC50
[7] = Homo sapiens, SK-BR-3, 48 hours exposure, read-out: IC50
[8] = Homo sapiens, SW-620, 48 hours exposure, read-out: IC50

IC50 ([1]; read-out: IC50): > 100 µM
SMILES: N#Cc1cnc2ncc(N)cc2c1Nc1ccc(F)c(Cl)c1 [Example 26, 6-Amino-4-(3-chloro-4-fluoro-phenylamino)-[1.8]naphthyridine-3-carbonitrile]

SMILES: N#Cc1cnc2ncc(N)cc2c1Nc1cccc(Br)c1 [Example 22, 6-Amino-4-(3-bromo-phenylamino)-[1.8]naphthyridine-3-carbonitrile]
IC50 [2, 3]: 0.05 µM | IC50 [1]: > 100 µM

SMILES: COc1ccc(CNc2cc3c(Nc4cccc(Br)c4)c(C#N)cnc3cn2)cc1 [Example 58, 4-(3-Bromo-phenylamino)-6-(4-methoxy-benzylamino)-[1.7]naphthyridine-3-carbonitrile]
IC50 [2, 3]: > 0.1 µM | IC50 [1]: > 100 µM | IC50 (A2780DDP; [4]): 1.8 µg/mL (≈ 3.91 µM) | IC50 (A2780S; [4]): 1 µg/mL (≈ 2.17 µM) | IC50 (A431; [5]): 0.4 µg/mL (≈ 0.869 µM) | IC50 (MDA435; [6]): 2.4 µg/mL (≈ 5.21 µM) | IC50 (SKBR3; [7]): 2.9 µg/mL (≈ 6.3 µM) | IC50 (SW620; [8]): 4.1 µg/mL (≈ 8.91 µM)

SMILES: N#Cc1cnc2cnc(F)cc2c1Nc1cccc(Br)c1 [Example 57, 4-(3-Bromo-phenylamino)-6-fluoro-[1.7]naphthyridine-3-carbonitrile]
IC50 [2, 3]: 0.008 µM | IC50 [1]: > 100 µM | IC50 (A2780DDP; [4]): > 5 µg/mL | IC50 (A2780S; [4]): 3.33 µg/mL (≈ 9.7 µM) | IC50 (A431; [5]): 3.92 µg/mL (≈ 11.4 µM) | IC50 (MDA435; [6]): > 5 µg/mL | IC50 (SKBR3; [7]): > 5 µg/mL | IC50 (SW620; [8]): > 5 µg/mL

SMILES: CC#CC(=O)Nc1cnc2ncc(C#N)c(Nc3ccc(F)c(Cl)c3)c2c1 [Example 27, But-2-ynoic acid [5-(3-chloro-4-fluoro-phenylamino)-6-cyano-[1.8]-naphthyridin-3-yl]-amide]
IC50 [1]: > 100 µM

SMILES: N#Cc1cnc2ccc(N)nc2c1Nc1cccc(Br)c1 [Example 49, 6-Amino-4-(3-bromo-phenylamino)-[1.5]naphthyridine-3-carbonitrile]
IC50 [1]: 25 µM

SMILES: C=CC(=O)Nc1cnc2ncc(C#N)c(Nc3cccc(Br)c3)c2c1 [Example 23, N-[5-(3-Bromo-phenylamino)-6-cyano-[1.8]naphthyridin-3-yl]-acrylamide]
IC50 [2]: 0.007 µM | IC50 ([1]; read-out: IC50): > 100 µM and 100 µM

IC50 ([1]; read-out: IC50): > 100 µM
SMILES: N#Cc1cnc2cccnc2c1Nc1cccc(Br)c1 [Example 37, 4-(3-Bromophenylamino)-[1.5]naphthyridine-3-carbonitrile]

IC50 [2, 3]: 0.003 µM
SMILES: N#Cc1cnc2ncc([N+](=O)[O-])cc2c1Nc1cccc(Br)c1 [Example 21, 4-(3-Bromo-phenylamino)-6-nitro-[1.8]naphthyridine-3-carbonitrile]

IC50 [2, 3]: 0.1 µM
SMILES: N#Cc1cnc2ncc([N+](=O)[O-])cc2c1Nc1ccc(F)c(Cl)c1 [Example 25, 4-(3-Chloro-4-fluoro-phenylamino)-6-nitro-[1.8]naphthyridine-3-carbonitrile]

SMILES: CCOc1ccc2ncc(C#N)c(Nc3cccc(Br)c3)c2n1 [Example 35, 4-(3-Bromo-phenylamino)-6-ethoxy-[1.5]naphthyridine-3-carbonitrile]
inhibition at 0.5 µM [2]: 9% | IC50 [2, 3]: > 10 µM | IC50 [1]: > 100 µM

IC50 (A2780DDP): 2.969 µg/mL (≈ 7.05 µM) | IC50 (A2780S): 2.344 µg/mL (≈ 5.56 µM) | IC50 (A431): 3.056 µg/mL (≈ 7.25 µM) | IC50 (MDA435): 4.203 µg/mL (≈ 9.97 µM) | IC50 (SKBR3; 48 hours exposure): 3.591 µg/mL (≈ 8.52 µM) | IC50 (SW620; 48 hours exposure): 4.724 µg/mL (≈ 11.2 µM)
SMILES: C[Si](C)(C)C#Cc1cc2c(Nc3cccc(Br)c3)c(C#N)cnc2cn1 [Example 85, 4-(3-Bromo-phenylamino)-6-trimethylsilanylethynyl-[1.7]naphthyridine-3-carbonitrile]

IC50 [2, 3]: 0.0007 µM | IC50 (A2780DDP; [4]): 3.1 µg/mL (≈ 9.11 µM) | IC50 (A2780S; [4]): 3.5 µg/mL (≈ 10.3 µM) | IC50 (A431; [5]): 0.4 µg/mL (≈ 1.18 µM) | IC50 (MDA435; [6]): > 5 µg/mL | IC50 (SKBR3; [7]): 4.1 µg/mL (≈ 12.1 µM) | IC50 (SW620; [8]): > 5 µg/mL
SMILES: N#Cc1cnc2cnc(N)cc2c1Nc1cccc(Br)c1 [Example 59, 6-Amino-4-(3-bromo-phenylamino)-[1.7]naphthyridine-3-carbonitrile]

SMILES: N#Cc1cnc2ncc(NC(=O)CCl)cc2c1Nc1cccc(Br)c1 [Example 28, N-[5-(3-Bromo-phenylamino)-6-cyano-[1.8]naphthyridin-3-yl]-2-chloro-acetamide]
IC50 ([1]; read-out: IC50): 6 µM

SMILES: CN(C)CC=CC(=O)Nc1cnc2ncc(C#N)c(Nc3cccc(Br)c3)c2c1 [Example 30, 4-Dimethylamino-but-2-enoic acid [5-(3-bromo-phenylamino)-6-cyano-[1.8]naphthyridin-3-yl]-amide]
inhibition at 0.5 µM [2]: 47% | IC50 [2, 3]: 0.8 µM | IC50 ([1]; read-out: IC50): 50 µM | IC50 (A2780DDP; [4]): 4 µg/mL (≈ 8.87 µM) | IC50 (A2780S; [4]): 1.77 µg/mL (≈ 3.92 µM) | IC50 (A431; [5]): 2.76 µg/mL (≈ 6.12 µM) | IC50 (MDA435; [6]): > 5 µg/mL | IC50 (SKBR3; [7]): 4.83 µg/mL (≈ 10.7 µM) | IC50 (SW620; [8]): > 5 µg/mL
